Test results published in patent publication US7148191B2, “Antigenic composition” (Intercell AG, priority 2000, dated 2006).

Tests used:
[1] = test system: peptide-specific IFN-γ-producing T cells in spleen or peripheral blood; assay: IFN-γ ELISPOT of peripheral blood leukocytes or spleen cells (systemic response) after injection of OVA257-264-peptide mixtures; format: in vivo, mice (C57B1/6); conditions: Example 11, FIG. 11; selected time points after one single injection
Description: To investigate whether the immune response induced by one single injection of peptide with pIC/pR is systemic, the rest of the animals (four per group) was bled from the tail vein at selected time points after injection, peripheral blood leukocytes (PBLs) were isolated, re-stimulated either with the relevant peptide, pIC, pR, ConA (positive control) or medium alone (background) and the number of IFN-γ-secreting T lymphocytes was determined using an ELISPOT assay. Assays were carried out in duplicates. Each spot represents a single IFN-γ-producing T cell. Spots were counted using a Biosys reader (Biosys, Germany). Number of background spots was subtracted from all samples. Results are expressed as the number of spots/1×10^6 cells±SD of duplicates.
(§1) To examine whether the immune response induced by one single injection of peptide with oligo-dIC/pR is systemic, the rest of the mice (4 mice/group) was investigated at selected time points after injection for the presence of peptide-specific IFN-γ-producing T cells in spleen or peripheral blood using an IFN-γ ELISPOT assay. Results are expressed as the number of spots/1×10^6 cells±SD of duplicates.

[2] = test system: OVA257-264-peptide-specific IFN-γ-producing T cells; assay: IFN-γ ELISPOT of draining lymph node cells after injection of OVA257-264-peptide mixtures; format: in vivo, mice (C57B1/6); conditions: Example 11; day 4; peptide 300 μg, oligo-dIC26-mer 5 nmol, pR 100 μg/mouse; footpad
Description: Experimental Groups (4 Mice Per Group) • 1. OVA257-264-peptide+pIC+pR • 2. OVA257-264-peptide+pIC • 3. OVA257-264-peptide+pR On day 0 mice were injected into each hind footpad with a total volume of 100 μl (50 μl per footpad) containing the above mentioned compounds. Animals were sacrificed 4 days after injection and popliteal lymph nodes were harvested. Single cell suspensions were prepared by mincing lymph nodes through a 70 μm cell strainer. Thereafter, cells were washed twice with DMEM medium (Life Technologies) containing 5% fetal calf serum (FCS, SIGMA Chemicals). Cells were adjusted to 10^7 cells/ml in DMEM/5% FCS. IFN-γ ELISPOT assays were carried out in triplicates as described (Miyahira et al., 1995). […] Spots were counted using a Biosys reader (Biosys, Germany). […] The Results are expressed as the number of spots/1×10^6 unseparated cells±SD of triplicates.

[3] = test system: OVA-specific T cells; assay: IFN-γ ELISPOT of draining lymph node cells after injection of ovalbumin (OVA) mixtures; format: in vivo, mice (C57B1/6); conditions: Example 12, FIG. 12A; OVA 50 μg, oligo-dIC26-mer 5 nmol, pR 100 μg/mouse; footpad; day 4 LN
Description: Experimental Groups (4 Mice Per Group) • 1. OVA257-264-peptide+pIC+pR • 2. OVA257-264-peptide+pIC • 3. OVA257-264-peptide+pR On day 0 mice were injected into each hind footpad with a total volume of 100 μl (50 μl per footpad) containing the above mentioned compounds. Animals were sacrificed 4 days after injection and popliteal lymph nodes were harvested. Single cell suspensions were prepared by mincing lymph nodes through a 70 μm cell strainer. Thereafter, cells were washed twice with DMEM medium (Life Technologies) containing 5% fetal calf serum (FCS, SIGMA Chemicals). Cells were adjusted to 10^7 cells/ml in DMEM/5% FCS. […] This method is a widely used procedure for the quantification of antigen-specific T cells. […] Spots were counted using a Biosys reader (Biosys, Germany). […] The Results are expressed as the number of spots/1×10^6 unseparated cells±SD of triplicates. […]
Experimental Groups (4 Mice Per Group) • 1. […] Results are expressed as the number of spots/1×10^6 cells±SD of triplicates. […] Importantly, the IFN-γ production was detected not only upon the re-stimulation with the whole OVA protein but also with both, MHC class I (OVA257-264)- and II (OVA265-280)-restricted OVA-derived epitopes (FIG. 9).
Experimental Groups (8 Mice Per Group) • 1. […] Results are expressed as the number of spots/1×10^6 cells±SD of triplicates.

[4] = test system: peptide-specific IFN-γ-producing T cells in peripheral blood; assay: IFN-γ ELISPOT of peripheral blood leukocytes after injection of ovalbumin (OVA) mixtures; format: in vivo, mice (C57B1/6); conditions: Example 12, FIG. 12B; PBLs re-stimulated with OVA257-264-peptide; selected time points after one single injection
Description: as §1, with “To further examine whether” for “To examine whether”, “injection of OVA protein with oligo-dIC/pR” for “injection of peptide with oligo-dIC/pR”, “cells in peripheral blood” for “cells in spleen or peripheral blood”

[5] = test system: human monocyte-derived DCs; assay: In vitro phenotypic maturation of DCs, surface molecules by flow cytometry; format: cell-based; conditions: 48 hours; for phenotypic maturation of DCs (overall): each 10 μg/ml, LPS 1 μg/ml as control
[6] = Example 10, FIG. 10, 10 μg/ml, day 6-cultured DCs, vs untreated DCs

Q: Which “systemic response (peptide-specific IFN-γ-producing T cells in spleen or peripheral blood)” value [1] does the source give for “OVA257–264-Peptide (SIINFEKL) [OVA257-264-peptide]” here?
A: could not be observed

Q: What about the “local antigen-specific response in draining lymph node cells” value [2] of the same substance?
A: could not be observed

Q: What does the source list for “OVA: Ovalbumin from chicken egg, grade V, SIGMA Chemicals, A-5503”?
A: local antigen-specific T cell response in lymph node cells [3]: could not be observed; systemic response (peptide-specific IFN-γ-producing T cells in peripheral blood) [4]: could not be observed

Q: With Poly-L-arginine [pR] as the substance, how does the “phenotypic maturation of DCs (overall)” value ([5]; Example 10, FIG. 10) read?
A: None of the above described phenotypic changes could be observed

Q: How did the “expression of CD1a molecules” value [5, 6] turn out when Polyinosinic-polycytidylic acid [pIC] was run?
A: down-regulation

Q: What about the “expression of CD86 and the maturation marker CD83” value [5, 6] of the same substance?
A: de-novo expression

Q: And the “expression of HLA-DR, -DQ and HLA-I molecules, CD40, CD54, CD80” value [5, 6]?
A: up-regulation

Q: And the “phenotypic maturation of DCs (overall)” value ([5]; Example 10, FIG. 10)?
A: comparable to that induced by LPS

Q: And the “expression of CD11a, CD11c, CD13, CD25, CD29 and CD50 antigens” value ([5]; Example 10, 10 μg/ml, day 6-cultured DCs)?
A: slight up-regulation
